According to US20260008788A1, “AZA-FUSED RING COMPOUND, PREPARATION METHOD THEREFOR, AND USE THEREOF IN MEDICINE” (SUZHOU ARK BIOPHARMACEUTICAL CO., LTD., priority 2022, published 2026):

target: T1, PDE4B2 (Homo sapiens, UniProt Q07343); assay: Inhibitory effect on PDE4 enzyme (AMP-Glo Assay kit), PDE4B2; type: biochemical; settings: cAMP substrate, 60 minutes at room temperature, AMP-Glo detection
T1 construct: purchased BPS bioscience 60042
Excerpt: PDE4 enzyme can hydrolyze cAMP to produce AMP. The synthetic PDE4 enzyme inhibitor act together with PDE4 enzyme and the substrate cAMP for a certain period of time, and then the AMP-Glo™ Assay kit was used for detection. The detection is divided into two steps: first, converting the AMP produced in the reaction into ADP, and second, converting ADP into ATP. ATP binds to the reagent and emits […]. The fluorescence value is detected using an […]. IC50 value of the PDE4 enzyme inhibitor was calculated by plotting a graph with the […] values. The specific details are as follows:
The compound plate was centrifuged at 1000 rpm for 1 minute.
% Inhibition={1−(Average RLU of the compound−Average RLU of the positive control of the whole plate)/(Average RLU of the negative control of the whole plate−Average RLU of the positive control of the whole plate)}
The IC50 is calculated by fitting the % inhibition values and the logarithm of the compound concentration to a non-linear regression (dose response-variable slope) using Graphpad 8.0.

T1 sequence (Q07343 1-564 isoform Q07343-2): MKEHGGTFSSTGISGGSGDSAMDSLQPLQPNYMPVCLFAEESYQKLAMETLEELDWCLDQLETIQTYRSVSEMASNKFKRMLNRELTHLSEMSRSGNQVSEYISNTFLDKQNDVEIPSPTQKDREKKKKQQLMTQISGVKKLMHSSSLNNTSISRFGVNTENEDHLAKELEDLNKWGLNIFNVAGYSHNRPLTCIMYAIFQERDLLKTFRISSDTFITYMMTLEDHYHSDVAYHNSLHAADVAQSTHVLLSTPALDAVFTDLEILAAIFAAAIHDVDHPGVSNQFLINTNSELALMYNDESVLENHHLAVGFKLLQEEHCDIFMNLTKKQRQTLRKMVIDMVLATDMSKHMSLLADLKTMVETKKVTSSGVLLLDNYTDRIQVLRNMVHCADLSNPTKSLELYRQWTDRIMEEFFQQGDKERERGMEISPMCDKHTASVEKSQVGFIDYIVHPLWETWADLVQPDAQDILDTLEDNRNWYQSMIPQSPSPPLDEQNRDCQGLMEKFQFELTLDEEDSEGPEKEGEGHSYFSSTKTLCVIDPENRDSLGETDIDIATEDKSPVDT

**Q.** For `[O-][S@+]1CCc2nc(N3CCc4oc(C5CCCCC5)nc4C3)nc(NC3(CO)CCC3)c21` [Example 5, (R)-2-(2-cyclohexyl-6,7-dihydrooxazolo[4,5-c]pyridin-5(4H)-yl)-4-((1-(hydroxymethyl)cyclobutyl)amino)-6,7-dihydrothieno[3,2-d]pyrimidine 5-oxide], which IC50 is on record?
**A.** 0.93 nM

**Q.** For `[O-][S@+]1CCc2nc(N3CCc4c(cnn4-c4ccccc4)C3)nc(NC3(CO)CCC3)c21` [Example 12, (R)-4-((1-(hydroxymethyl)cyclobutyl)amino)-2-(1-phenyl-1,4,6,7-tetrahydro-5H-pyrazolo[4,3-c]pyridin-5-yl)-6,7-dihydrothieno[3,2-d]pyrimidine-5-oxide], which IC50 is on record?
**A.** 0.63 nM

**Q.** `Cc1cc(C(F)(F)F)c(CNc2nc(N3CCc4oc(-c5ccc(F)cc5)nc4C3)nc3c2[S@+]([O-])CC3)c(=O)[nH]1` [Example 17, (R)-3-(((2-(2-(4-fluorophenyl)-6,7-dihydrooxazolo[4,5-c]pyridin-5(4H)-yl)-5-oxido-6,7-dihydrothieno[3,2-d]pyrimidin-4-yl)amino)methyl)-6-methyl-4-(trifluoromethyl)pyridin-2(1H)-one] was tested. Which IC50 did it give?
**A.** 8.9 nM

**Q.** Which IC50 does the source give for `COc1nc(C)cc(C)c1CNc1nc(N2CCc3oc(-c4ccc(F)cc4)nc3C2)nc2c1[S@+]([O-])CC2` [Example 18, (R)-2-(2-(4-fluorophenyl)-6,7-dihydrooxazolo[4,5-c]pyridin-5(4H)-yl)-4-(((2-methoxy-4,6-dimethylpyridin-3-yl)methyl)amino)-6,7-dihydrothieno[3,2-d]pyrimidine 5-oxide] here?
**A.** 0.5 nM

**Q.** For `[O-][S@+]1CCc2nc(N3CCc4cc(-c5ncccn5)ccc4C3)nc(NC34CC(CO)(C3)C4)c21` [Example 24, (R)-4-((3-(hydroxymethyl)bicyclo[1.1.1]pentan-1-yl)amino)-2-(6-(pyrimidin-2-yl)-3,4-dihydroisoquinolin-2(1H)-yl)-6,7-dihydrothieno[3,2-d]pyrimidine 5-oxide], which IC50 is on record?
**A.** < 0.1 nM
